From patent US12528815B2, “5-amino-8-(4-pyridyl)-[1,2,4]triazolo[4,3-c]pyrimidin-3-one compounds for use against cancer” (Nxera Pharma UK Limited, priority 2020, dated 2026)

molecular target: T1, human adenosine A2A receptor (Homo sapiens, UniProt P29274); test: Inhibition binding assay, human adenosine A2A receptor membranes, [3H]ZM241385; settings: 1 nM [3H]ZM241385, HEK293-hA2A membranes, 25° C., 1 h; IC50 converted to Ki with Cheng-Prusoff; read-out: A2A pKi (converted)
T1 construct: expressed in transfected cells; host or cells: HEK293 cells infected with BacMam
T1 sequence (P29274 whole entry): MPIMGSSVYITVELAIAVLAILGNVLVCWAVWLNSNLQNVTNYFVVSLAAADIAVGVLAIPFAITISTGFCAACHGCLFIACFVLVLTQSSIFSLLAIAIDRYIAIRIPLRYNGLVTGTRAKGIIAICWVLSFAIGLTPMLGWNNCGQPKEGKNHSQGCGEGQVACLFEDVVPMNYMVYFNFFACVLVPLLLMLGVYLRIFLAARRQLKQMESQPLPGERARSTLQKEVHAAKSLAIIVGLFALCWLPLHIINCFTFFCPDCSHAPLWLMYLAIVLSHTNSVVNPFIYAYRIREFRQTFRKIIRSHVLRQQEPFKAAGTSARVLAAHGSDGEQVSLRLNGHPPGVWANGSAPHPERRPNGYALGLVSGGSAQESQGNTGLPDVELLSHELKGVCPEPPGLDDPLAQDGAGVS
Experimental: Inhibition binding assays were performed using 0.2 μg of membranes prepared from HEK293 cells infected with BacMam human adenosine A2A receptor or 1.4 μg of membranes prepared from HEK293 cells infected with BacMam human adenosine A1 receptor. Membranes were incubated in 50 mM Tris-HCl (HEK293-hA2A; pH 7.4) or 50 mM Tris-HCl, 100 mM NaCl, 10 mM MgCl2 (CHO-hA1; pH 7.4) in the presence of varying concentrations of test compound and 1 nM [^3H]ZM241385 (HEK293-hA2A) or [^3H]DPCPX (CHO-hA1) at 25° C. for 1 h. The assay was then terminated by rapid filtration onto GF/B grade Unifilter plates using a TomTec cell harvester, followed by 5×0.5 ml washes with ddH2O. Nonspecific binding was defined in the presence of 1 μM CGS15943 (HEK293-hA2A) or 1 μM DPCPX (CHO-hA1). Bound radioactivity was determined by liquid scintillation counting and inhibition curves were analysed using a four-parameter logistic equation. IC50 values were converted to Ki values with the Cheng-Prusoff equation using a KD value derived from saturation binding studies.

SMILES	Ki [nM]
Cc1cc(-c2c(-c3ccccc3)nc(N)n3c(=O)n(Cc4ccc(C#N)cn4)nc23)cc(CO)n1 [Example 1-54, 6-[[5-amino-8-[2-(hydroxymethyl)-6-methyl-4-pyridyl]-3-oxo-7-phenyl-[1,2,4]triazolo[4,3-c]pyrimidin-2-yl]methyl]pyridine-3-carbonitrile]	158
Cc1cc(-c2c(-c3ccco3)nc(N)n3c(=O)n(CCC(F)(F)F)nc23)cc(C)n1 [Example 2-42, 5-amino-8-(2,6-dimethyl-4-pyridyl)-7-(2-furyl)-2-(3,3,3-trifluoropropyl)-[1,2,4]triazolo[4,3-c]pyrimidin-3-one]	1
CCNC(=O)OCCn1nc2c(-c3cc(C)nc(C)c3)c(-c3ccccc3)nc(N)n2c1=O [Example 2-16, 2-[5-amino-8-(2,6-dimethyl-4-pyridyl)-3-oxo-7-phenyl-[1,2,4]triazolo[4,3-c]pyrimidin-2-yl]ethyl N-ethylcarbamate]	20
Cc1cc(-c2c(-c3ccccc3)nc(N)n3c(=O)n(C[C@@H]4CN(C)CCN4C)nc23)cc(C)n1 [Example 2-87, (S)-5-amino-2-((1,4-dimethylpiperazin-2-yl)methyl)-8-(2,6-dimethylpyridin-4-yl)-7-phenyl-[1,2,4]triazolo[4,3-c]pyrimidin-3(2H)-one]	100
Cc1cnn(-c2nc(N)n3c(=O)n(CCC(F)(F)F)nc3c2-c2cc(C)nc(C)c2)c1 [Example 2-41, 5-amino-8-(2,6-dimethyl-4-pyridyl)-7-(4-methylpyrazol-1-yl)-2-(3,3,3-trifluoropropyl)-[1,2,4]triazolo[4,3-c]pyrimidin-3-one]	31.6
Cc1cc(-c2c(-c3ccccc3)nc(N)n3c(=O)n(C[C@H]4CN(C)CCN4C)nc23)cc(C)n1 [Example 2-85, (R)-5-amino-2-((1,4-dimethylpiperazin-2-yl)methyl)-8-(2,6-dimethylpyridin-4-yl)-7-phenyl-[1,2,4]triazolo[4,3-c]pyrimidin-3(2H)-one]	7.94

Next, values leading:

Ki [nM]	SMILES
79.4	Cc1cc(-c2c(-c3ccccc3)nc(N)n3c(=O)n(C[C@@H]4CNCCN4C)nc23)cc(C)n1 [Example 2-88, 5-amino-8-(2,6-dimethyl-4-pyridyl)-2-[[(2S)-1-methylpiperazin-2-yl]methyl]-7-phenyl-[1,2,4]triazolo[4,3-c]pyrimidin-3-one]
100	COC(=O)N1CCCC(NCCn2nc3c(-c4cc(C)nc(C)c4)c(-c4ccccc4)nc(N)n3c2=O)C1 (stereo not drawn) [Example 2-106, methyl 3-[2-[5-amino-8-(2,6-dimethyl-4-pyridyl)-3-oxo-7-phenyl-[1,2,4]triazolo[4,3-c]pyrimidin-2-yl]ethylamino]piperidine-1-carboxylate]
6.31	Cc1cc(-c2c(-c3ccccc3)nc(N)n3c(=O)n(CCN4CCC5CC54)nc23)cc(C)n1 (stereo not drawn) [Example 2-95, 2-(2-(2-azabicyclo[3.1.0]hexan-2-yl)ethyl)-5-amino-8-(2,6-dimethylpyridin-4-yl)-7-phenyl-[1,2,4]triazolo[4,3-c]pyrimidin-3(2H)-one]
15.8	Cc1cc(-c2c(-c3ccccc3)nc(N)n3c(=O)n(CCN4CCCCC4)nc23)cc(C)n1 [Example 2-96, 5-amino-8-(2,6-dimethyl-4-pyridyl)-7-phenyl-2-[2-(1-piperidyl)ethyl]-[1,2,4]triazolo[4,3-c]pyrimidin-3-one]
31.6	Cc1cc(-c2c(-c3ccc(F)cc3)nc(N)n3c(=O)n(CC4CCCN=N4)nc23)cc(CO)n1 (stereo not drawn) [Example 2-93, 5-amino-7-(4-fluorophenyl)-8-[2-(hydroxymethyl)-6-methyl-4-pyridyl]-2-(3,4,5,6-tetrahydropyridazin-3-ylmethyl)-[1,2,4]triazolo[4,3-c]pyrimidin-3-one]
126	Cc1cc(-c2c(-c3ccccc3)nc(N)n3c(=O)n(CCC4CCN(CCC(=O)O)CC4)nc23)cc(C)n1 [Example 2-110, 3-[4-[2-[5-amino-8-(2,6-dimethyl-4-pyridyl)-3-oxo-7-phenyl-[1,2,4]triazolo[4,3-c]pyrimidin-2-yl]ethyl]-1-piperidyl]propanoic acid]
